Measurements published in patent US6737383B1, “Herbicidal oxadiazolidines” (priority 1999, dated 2004).

Experiments:
Setaria faberii (SETFA) = assay: Test F preemergence, alone and in mixture with rimsulfuron, SETFA; format: in vivo; details: 21 days after treatment
Experimental: (§1) Abutilon theophrasti (ABUTH), Chenopodium album (CHEAL), Amaranthus rudis (AMATA), Setaria faberii (SETFA), Panicum dichotomiflorum (PANDI), and Digitaria sanguinalis (DIGSA) were grown from seed in pots of an artificial potting mixture in a greenhouse. Compounds of the present invention were applied at 70 and 105 g ai/ha preemergence. Rimsulfuron was applied at 8.8 and 17.5 g ai/ha. Mixtures of the compounds of the present invention and rimsulfuron were also applied.
(§2) Following application, the plants were maintained by watering as needed. A fertilizer solution of Peter's 20-20-20 (10 pounds/5 gallons of water) plus Sprint 330, a Iron Chelate micronutrient, (113.5 grams/5 gallons of water) was injected into the water with an Anderson fertilizer injection system to provide approximately 219 ppm of nitrogen with each watering. Artificial lighting was used to supplement natural light to produce a 14 hour photoperiod and: an additional one hour light period was used between 1:00 am to 2:00 am for a night interruption. Greenhouse temperatures were targeted for 27° C. in the day and 21° C. at night. At 21 days after treatment, all plants were evaluated for injury as compared to control plants that were sprayed only with non-phytotoxic solvent.
(§3) Colby's equation was used to calculate the expected additive herbicidal effect of the mixtures of Compound 21 and the mixture partners listed above. […]

[1] = tested on: Panicum dichotomiflorum (PANDI); assay: Test F preemergence, alone and in mixture with rimsulfuron, PANDI; format: in vivo; details: 21 days after treatment
Experimental: as §1, §2, §3

[2] = tested on: Digitaria sanguinalis (DIGSA); assay: Test F preemergence, alone and in mixture with rimsulfuron, DIGSA; format: in vivo; details: 21 days after treatment
Experimental: as §1, §2, §3

Amaranthus rudis (AMATA) = assay: Test F preemergence, alone and in mixture with rimsulfuron, AMATA; format: in vivo; details: 21 days after treatment
Experimental: as §1, §2, §3

[3] = tested on: Abutilon theophrasti (ABUTH); assay: Test F preemergence, alone and in mixture with rimsulfuron, ABUTH; format: in vivo; details: 21 days after treatment
Experimental: as §1, §2, §3

[4] = tested on: Chenopodium album (CHEAL); assay: Test F preemergence, alone and in mixture with rimsulfuron, CHEAL; format: in vivo; details: 21 days after treatment
Experimental: as §1, §2, §3

corn = assay: Test B pre/postemergence corn; format: in vivo, Zea mays
Procedure, shortened: (§4)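 Herbicidal effect was estimated by eye on a ten-point control scale after plants spent twelve to sixteen days in a greenhouse following soil or foliar treatment. Foliar sprays targeted plants at one to four leaves; all doses were formulated in a non-phytotoxic solvent with surfactant.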

purple nutsedge = assay: Test B pre/postemergence purple nutsedge; format: in vivo, Cyperus rotundus
Procedure, shortened: as §4

wheat = assay: Test B pre/postemergence wheat; format: in vivo, Triticum aestivum
Procedure, shortened: as §4

cocklebur = assay: Test B pre/postemergence cocklebur; format: in vivo, Xanthium strumarium
Procedure, shortened: as §4

wild oat = assay: Test B pre/postemergence wild oat; format: in vivo, Avena fatua
Procedure, shortened: as §4

sugar beet = assay: Test B pre/postemergence sugar beet; format: in vivo, Beta vulgaris
Procedure, shortened: as §4

pigweed = assay: Test B pre/postemergence pigweed; format: in vivo, Amaranthus retroflexus
Procedure, shortened: as §4

bedstraw = assay: Test B pre/postemergence bedstraw; format: in vivo, Galium aparine
Procedure, shortened: as §4

giant foxtail = assay: Test B pre/postemergence giant foxtail; format: in vivo, Setaria faberii
Procedure, shortened: as §4

smallflower flatsedge = assay: Test B flood test smallflower flatsedge; format: in vivo, Cyperus difformis
Procedure, shortened: (§5)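 Flood test on plants grown to the 2-leaf stage; treated plants kept in greenhouse twelve to sixteen days, then visually rated against controls on a 0 (no effect) to 10 (complete control) scale.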

blackgrass = assay: Test B pre/postemergence blackgrass; format: in vivo, Alopecurus myosuroides
Procedure, shortened: as §4

rice = assay: Test B flood test rice; format: in vivo, Oryza sativa
Procedure, shortened: as §5

crabgrass = assay: Test B pre/postemergence crabgrass; format: in vivo, Digitaria sanguinalis
Procedure, shortened: as §4

bamyardgrass = assay: Test B flood test barnyardgrass; format: in vivo, Echinochloa crus-galli
Procedure, shortened: as §5

surinam grass = assay: Test B pre/postemergence surinam grass; format: in vivo, Brachiaria decumbens
Procedure, shortened: as §4

rape = assay: Test B pre/postemergence rape; format: in vivo, Brassica napus
Procedure, shortened: as §4

morningglory = assay: Test B pre/postemergence morningglory; format: in vivo, Ipomoea hederacea
Procedure, shortened: as §4

duck salad = assay: Test B flood test duck salad; format: in vivo, Heteranthera limosa
Procedure, shortened: as §5

soybean = assay: Test B pre/postemergence soybean; format: in vivo, Glycine max
Procedure, shortened: as §4

velvetleaf = assay: Test B pre/postemergence velvetleaf; format: in vivo, Abutilon theophrasti
Procedure, shortened: as §4

[5] = Alone: Cmpd. 0, Rimsulfuron rate 8.8
[6] = Alone: Cmpd. 0, Rimsulfuron rate 17.5
[7] = Preemergence, Rate 62 g/ha, scale of 0 to 10 where 0 is no effect and 10 is complete control
[8] = Preemergence, Rate 250 g/ha, scale of 0 to 10 where 0 is no effect and 10 is complete control
[9] = Preemergence, Rate 500 g/ha, scale of 0 to 10 where 0 is no effect and 10 is complete control
[10] = Rate 62 g/ha, Postemergence, scale of 0 to 10 where 0 is no effect and 10 is complete control
[11] = Rate 125 g/ha, Postemergence, scale 0 to 10
[12] = Rate 125 g/ha, Preemergence, scale of 0 to 10 where 0 is no effect and 10 is complete control
[13] = Rate 500 g/ha, Postemergence, scale 0 to 10, 0 no effect, 10 complete control
[14] = Rate 62 g/ha, headed Pre-emergence (flood test species), scale 0 to 10 (0 no effect, 10 complete control)
[15] = Rate 125 g/ha, Pre-emergence, flood test species, scale 0 to 10 where 0 is no effect and 10 is complete control
[16] = Rate 250 g/ha, Pre-emergence, flood-test species, scale 0 to 10, 0 is no effect, 10 is complete control
[17] = Rate 500 g/ha, Pre-emergence, flood test species, scale 0 to 10 (0 no effect, 10 complete control)

For `CCS(=O)(=O)c1cccnc1S(=O)(=O)NC(=O)Nc1nc(OC)cc(OC)n1` [rimsulfuron], which “SETFA Observed” value (Setaria faberii (SETFA); [5]) is on record?
Its value is 75%.

And the “SETFA Observed” value (Setaria faberii (SETFA); [6])?
Its value is 90%.

What about the “PANDI Observed” value [1, 5] of the same compound?
Its value is 75%.

What about the “PANDI Observed” value [1, 6] of the same compound?
The value was 95%.

And the “DIGSA Observed” value [2, 5]?
The value was 95%.

And the “DIGSA Observed” value [2, 6]?
Its value is 100%.

What about the “AMATA Observed” value (Amaranthus rudis (AMATA); [5]) of the same compound?
The value was 10%.

What about the “AMATA Observed” value (Amaranthus rudis (AMATA); [6]) of the same compound?
Its value is 15%.

And the “ABUTH Observed” value [3, 5]?
Its value is 20%.

And the “ABUTH Observed” value [3, 6]?
Its value is 40%.

What about the “CHEAL Observed” value [4, 5] of the same compound?
The value was 25%.

What about the “CHEAL Observed” value [4, 6] of the same compound?
Its value is 60%.

What does the source list for `Cc1noc(C)c1Cn1c(=O)on(C(=O)N(c2ccc(F)cc2)C(C)C)c1=O` [Compound 259]?
Corn plant response rating (corn; [7]): 0; Corn plant response rating (corn; [8]): 3; Plant response rating, Corn (corn; [9]): 3; Corn plant response rating (corn; [10]): 0; Corn plant response rating (corn; [11]): 0; Corn plant response rating (corn; [12]): 0; Plant response rating (0 to 10; 0 is no effect, 10 is complete control), Corn (corn; Rate 250 g/ha, Postemergence): 0; Corn plant response rating (corn; [13]): 0; Nutsedge plant response rating (purple nutsedge; [7]): 0; Nutsedge plant response rating (purple nutsedge; [8]): 0; Plant response rating, Nutsedge (purple nutsedge; [9]): 0; Nutsedge plant response rating (purple nutsedge; [12]): 0; Plant response rating (0 to 10; 0 is no effect, 10 is complete control), Nutsedge (purple nutsedge; Rate 250 g/ha, Postemergence): 0; Nutsedge plant response rating (purple nutsedge; [13]): 0; Wheat plant response rating (wheat; [7]): 0; Wheat plant response rating (wheat; [8]): 0; Plant response rating, Wheat (wheat; [9]): 0; Wheat plant response rating (wheat; [12]): 0; Wheat plant response rating (wheat; [13]): 3; Cocklebur plant response rating (cocklebur; [7]): 0; Cocklebur plant response rating (cocklebur; [8]): 0; Plant response rating, Cocklebur (cocklebur; [9]): 0; Cocklebur plant response rating (cocklebur; [10]): 0; Cocklebur plant response rating (cocklebur; [11]): 2; Cocklebur plant response rating (cocklebur; [12]): 0; Plant response rating (0 to 10; 0 is no effect, 10 is complete control), Cocklebur (cocklebur; Rate 250 g/ha, Postemergence): 2; Cocklebur plant response rating (cocklebur; [13]): 3; Wild oats plant response rating (wild oat; [7]): 2; Wild oats plant response rating (wild oat; [8]): 4; Plant response rating, Wild oats (wild oat; [9]): 4; Wild oats plant response rating (wild oat; [12]): 2; Wild oats plant response rating (wild oat; [13]): 0; Sugarbeets plant response rating (sugar beet; [7]): 0; Sugarbeets plant response rating (sugar beet; [8]): 0; Plant response rating, Sugarbeets (sugar beet; [9]): 0; Sugarbeets plant response rating (sugar beet; [12]): 0; Sugarbeets plant response rating (sugar beet; [13]): 3; Redroot pigweed plant response rating (pigweed; [7]): 0; Redroot pigweed plant response rating (pigweed; [8]): 2; Plant response rating, Redroot pigweed (pigweed; [9]): 8; Redroot pigweed plant response rating (pigweed; [12]): 0; Plant response rating (0 to 10; 0 is no effect, 10 is complete control), Redroot pigweed (pigweed; Rate 250 g/ha, Postemergence): 6; Redroot pigweed plant response rating (pigweed; [13]): 7; Bedstraw plant response rating (bedstraw; [7]): 7; Bedstraw plant response rating (bedstraw; [8]): 10; Plant response rating, Bedstraw (bedstraw; [9]): 10; Bedstraw plant response rating (bedstraw; [10]): 0; Bedstraw plant response rating (bedstraw; [11]): 0; Bedstraw plant response rating (bedstraw; [12]): 10; Giant foxtail plant response rating (giant foxtail; [7]): 9; Giant foxtail plant response rating (giant foxtail; [8]): 9; Plant response rating, Giant foxtail (giant foxtail; [9]): 10; Giant foxtail plant response rating (giant foxtail; [12]): 9; Plant response rating (0 to 10; 0 is no effect, 10 is complete control), Giant foxtail (giant foxtail; Rate 250 g/ha, Postemergence): 0; Giant foxtail plant response rating (giant foxtail; [13]): 0; S. Flatsedge plant response rating (smallflower flatsedge; [14]): 0; S. Flatsedge plant response rating (smallflower flatsedge; [15]): 0; S. Flatsedge plant response rating (smallflower flatsedge; [16]): 0; S. Flatsedge plant response rating (smallflower flatsedge; [17]): 0; Blackgrass plant response rating (blackgrass; [7]): 2; Blackgrass plant response rating (blackgrass; [8]): 10; Plant response rating, Blackgrass (blackgrass; [9]): 10; Blackgrass plant response rating (blackgrass; [10]): 0; Blackgrass plant response rating (blackgrass; [11]): 0; Blackgrass plant response rating (blackgrass; [12]): 10; Plant response rating (0 to 10; 0 is no effect, 10 is complete control), Blackgrass (blackgrass; Rate 250 g/ha, Postemergence): 0; Blackgrass plant response rating (blackgrass; [13]): 0; Rice plant response rating (rice; [14]): 0; Rice plant response rating (rice; [15]): 0; Rice plant response rating (rice; [16]): 0; Rice plant response rating (rice; [17]): 0; Crabgrass plant response rating (crabgrass; [7]): 4; Plant response rating, Crabgrass (crabgrass; [9]): 7; Crabgrass plant response rating (crabgrass; [12]): 4; Plant response rating (0 to 10; 0 is no effect, 10 is complete control), Crabgrass (crabgrass; Rate 250 g/ha, Postemergence): 0; Crabgrass plant response rating (crabgrass; [13]): 0; Barnyardgrass plant response rating (bamyardgrass; [14]): 0; Barnyardgrass plant response rating (bamyardgrass; [15]): 0; Barnyardgrass plant response rating (bamyardgrass; [16]): 0; Barnyardgrass plant response rating (bamyardgrass; [17]): 0; B. signalgrass plant response rating (surinam grass; [7]): 2; B. signalgrass plant response rating (surinam grass; [8]): 8; Plant response rating, B. signalgrass (surinam grass; [9]): 9; B. signalgrass plant response rating (surinam grass; [10]): 0; B. signalgrass plant response rating (surinam grass; Rate 125 g/ha, Postemergence, scale 0 (no effect) to 10 (complete control)): 0; B. signalgrass plant response rating (surinam grass; [12]): 5; Plant response rating (0 to 10; 0 is no effect, 10 is complete control), B. signalgrass (surinam grass; Rate 250 g/ha, Postemergence): 0; B. signalgrass plant response rating (surinam grass; [13]): 0; Rape plant response rating (rape; [7]): 0; Plant response rating, Rape (rape; [9]): 9; Rape plant response rating (rape; [12]): 0; Plant response rating (0 to 10; 0 is no effect, 10 is complete control), Rape (rape; Rate 250 g/ha, Postemergence): 0; Morningglory plant response rating (morningglory; [7]): 0; Morningglory plant response rating (morningglory; [8]): 0; Plant response rating, Morningglory (morningglory; [9]): 0; Morningglory plant response rating (morningglory; [12]): 0; Plant response rating (0 to 10; 0 is no effect, 10 is complete control), Morningglory (morningglory; Rate 250 g/ha, Postemergence): 7; Morningglory plant response rating (morningglory; [13]): 8; Ducksalad plant response rating (duck salad; [14]): 0; Ducksalad plant response rating (duck salad; [15]): 0; Ducksalad plant response rating (duck salad; [16]): 0; Ducksalad plant response rating (duck salad; [17]): 0; Soybean plant response rating (soybean; [7]): 0; Soybean plant response rating (soybean; [8]): 0; Plant response rating, Soybean (soybean; [9]): 0; Soybean plant response rating (soybean; [12]): 0; Soybean plant response rating (soybean; [13]): 6; Velvetleaf plant response rating (velvetleaf; [7]): 2; Velvetleaf plant response rating (velvetleaf; [8]): 4; Plant response rating, Velvetleaf (velvetleaf; [9]): 5; Velvetleaf plant response rating (velvetleaf; [12]): 2; Velvetleaf plant response rating (velvetleaf; [13]): 1
